Measured values reported in ChEMBL document CHEMBL6074682, “Expanding the therapeutic window of gramicidin S towards a safe and effective systemic treatment of methicillin-resistant S. aureus infections” (Eur J Med Chem, 2025).
Converted amounts (≈) assume the structure as drawn. Square brackets hold non-standard residues; d marks the D form. Peptide text beside a SMILES is read from it. Tle = CC(C)(C)[C@H](N)C(=O)O; Orn = NCCC[C@H](N)C(=O)O

Legend:
Staphylococcus aureus [1] = experiment: Antibacterial activity against methicillin-sensitive Staphylococcus aureus ATCC 29213 clinical isolate assessed as bacterial growth inhibition at 256 to 0.125 ug/ml in CAMH broth medium incubated for 16 to 20 hrs by broth microdilution method; format: functional; details: dose 256-0.125 µg/ml, time 16-20 hrs
Staphylococcus aureus [2] = experiment: Antibacterial activity against methicillin-resistant Staphylococcus aureus ATCC USA 300 clinical isolate assessed as bacterial growth inhibition at 256 to 0.125 ug/ml in CAMH broth medium incubated for 16 to 20 hrs by broth microdilution method; format: functional; details: dose 256-0.125 µg/ml, time 16-20 hrs
[3] = Hemolytic activity in human RBC assessed as hemolysis incubated for 1 hr by absorbance based assay; format: toxicity, cell-based, Erythrocyte; details: human red blood cells
[4] = Nephrotoxicity against HEK293 cells assessed as cell viability incubated for 24 hrs by MTT assay; format: toxicity, cell-based; details: human
[5] = Retention time of the compound by RP-HPLC analysis; format: physicochemical
[6] = Therapeutic index, ratio of HC50 for human RBC to MIC for antibacterial activity against methicillin-sensitive Staphylococcus aureus ATCC 29213 clinical isolate; format: toxicity, cell-based; details: pooled result: one value given for 2 cell lines, strains, targets or settings, read-out: TI

SMILES	MIC (Staphylococcus aureus [1])	MIC (Staphylococcus aureus [2])	HC50 at 1 h [3]	IC50 at 24 h [4]	Retention_time [5]	selectivity ratio [6]
CC(C)C[C@@H]1NC(=O)[C@H](CCCN)NC(=O)[C@H](C(C)C)NC(=O)[C@@H]2CCCN2C(=O)[C@@H](Cc2ccccc2)NC(=O)[C@H](CC(C)C)NC(=O)[C@H](CCCN)NC(=O)[C@H](C(C)C)NC(=O)[C@H](Cc2c[nH]c3ccccc23)NC(=O)[C@@H](Cc2ccccc2)NC1=O (HELM PEPTIDE1{L.[dF].P.V.[Orn].L.[dF].W.V.[Orn]}$PEPTIDE1,PEPTIDE1,1:R1-10:R2$$$V2.0)	4 µg/mL (≈ 3.25 µM)	4 µg/mL (≈ 3.25 µM)	9.04 µg/mL	5.07 µg/mL (≈ 4.12 µM)	18.78 min	2.26
CC(C)C[C@@H]1NC(=O)[C@H](CCCN)NC(=O)[C@H](C(C)(C)C)NC(=O)[C@@H]2CCCN2C(=O)[C@@H](Cc2ccccc2)NC(=O)[C@H](CC(C)C)NC(=O)[C@H](CCCN)NC(=O)[C@H](C(C)(C)C)NC(=O)[C@@H]2CCCN2C(=O)[C@@H](CCCNC(=N)N)NC1=O (HELM PEPTIDE1{L.[dF].P.[CC(C)(C)[C@H](N[*:1])C(=O)[*:2]].[Orn].L.[dR].P.[CC(C)(C)[C@H](N[*:1])C(=O)[*:2]].[Orn]}$PEPTIDE1,PEPTIDE1,1:R1-10:R2$$$V2.0)	3 µg/mL (≈ 2.55 µM)	3 µg/mL (≈ 2.55 µM)	17.7 µg/mL	9.75 µg/mL (≈ 8.27 µM)	17.15 min	5.9
CC(C)C[C@@H]1NC(=O)[C@H](CCCN)NC(=O)[C@H](C(C)(C)C)NC(=O)[C@@H]2CCCN2C(=O)[C@@H](Cc2ccccc2)NC(=O)[C@H](CC(C)C)NC(=O)[C@H](CCCN)NC(=O)[C@H](C(C)C)NC(=O)[C@@H]2CCCN2C(=O)[C@@H](Cc2ccccc2)NC1=O (HELM PEPTIDE1{L.[dF].P.[CC(C)(C)[C@H](N[*:1])C(=O)[*:2]].[Orn].L.[dF].P.V.[Orn]}$PEPTIDE1,PEPTIDE1,1:R1-10:R2$$$V2.0)	4 µg/mL (≈ 3.46 µM)	4 µg/mL (≈ 3.46 µM)	7.49 µg/mL	5.46 µg/mL (≈ 4.73 µM)	19.38 min	1.87
CC(C)C[C@@H]1NC(=O)[C@H](CCCN)NC(=O)[C@H](C(C)C)NC(=O)[C@@H]2CCCN2C(=O)[C@@H](Cc2ccccc2)NC(=O)[C@H](CC(C)C)NC(=O)[C@H](CCCN)NC(=O)[C@H](C(C)C)NC(=O)[C@H](Cc2c[nH]c3ccccc23)NC(=O)[C@@H](CCCNC(=N)N)NC1=O (HELM PEPTIDE1{L.[dF].P.V.[Orn].L.[dR].W.V.[Orn]}$PEPTIDE1,PEPTIDE1,1:R1-10:R2$$$V2.0)	5 µg/mL (≈ 4.03 µM)	5 µg/mL (≈ 4.03 µM)	32.8 µg/mL	13.6 µg/mL (≈ 11 µM)	16.56 min	6.56
CC(C)C[C@@H]1NC(=O)[C@H](CCCN)NC(=O)[C@H](C(C)C)NC(=O)[C@H](Cc2c[nH]c3ccccc23)NC(=O)[C@@H](Cc2ccccc2)NC(=O)[C@H](CC(C)C)NC(=O)[C@H](CCCN)NC(=O)[C@H](C(C)C)NC(=O)[C@H](Cc2c[nH]c3ccccc23)NC(=O)[C@@H](CCCNC(=N)N)NC1=O (HELM PEPTIDE1{L.[dF].W.V.[Orn].L.[dR].W.V.[Orn]}$PEPTIDE1,PEPTIDE1,1:R1-10:R2$$$V2.0)	5 µg/mL (≈ 3.76 µM)	5 µg/mL (≈ 3.76 µM)	19.6 µg/mL	5.36 µg/mL (≈ 4.03 µM)	16.6 min	3.93
CC(C)(C)[C@@H]1NC(=O)[C@H](CCCN)NC(=O)[C@H](C(C)(C)C)NC(=O)[C@@H]2CCCN2C(=O)[C@@H](Cc2ccccc2)NC(=O)[C@H](C(C)(C)C)NC(=O)[C@H](CCCN)NC(=O)[C@H](C(C)(C)C)NC(=O)[C@@H]2CCCN2C(=O)[C@@H](Cc2ccccc2)NC1=O (cyclo([Orn][Tle][dF]P[Tle][Orn][Tle][dF]P[Tle]))	2 µg/mL (≈ 1.71 µM)	2 µg/mL (≈ 1.71 µM)	5.9 µg/mL	5.31 µg/mL (≈ 4.54 µM)	19.9 min	2.95
CC(C)C[C@@H]1NC(=O)[C@H](CCCN)NC(=O)[C@H](C(C)(C)C)NC(=O)[C@@H]2CCCN2C(=O)[C@@H](Cc2ccccc2)NC(=O)[C@H](CC(C)C)NC(=O)[C@H](CCCN)NC(=O)[C@H](C(C)(C)C)NC(=O)[C@@H]2CCCN2C(=O)[C@@H](Cc2ccccc2)NC1=O (HELM PEPTIDE1{L.[dF].P.[CC(C)(C)[C@H](N[*:1])C(=O)[*:2]].[Orn].L.[dF].P.[CC(C)(C)[C@H](N[*:1])C(=O)[*:2]].[Orn]}$PEPTIDE1,PEPTIDE1,1:R1-10:R2$$$V2.0)	4 µg/mL (≈ 3.42 µM)	4 µg/mL (≈ 3.42 µM)	6.26 µg/mL	4.62 µg/mL (≈ 3.95 µM)	19.99 min	1.57
CC(C)C[C@@H]1NC(=O)[C@H](CCCN)NC(=O)[C@H](C(C)C)NC(=O)[C@@H]2CCCN2C(=O)[C@@H](Cc2ccccc2)NC(=O)[C@H](CC(C)C)NC(=O)[C@H](CCCN)NC(=O)[C@H](C(C)C)NC(=O)[C@H](Cc2c[nH]c3ccccc23)NC(=O)[C@@H](Cc2c[nH]c3ccccc23)NC1=O (HELM PEPTIDE1{L.[dF].P.V.[Orn].L.[dW].W.V.[Orn]}$PEPTIDE1,PEPTIDE1,1:R1-10:R2$$$V2.0)	4 µg/mL (≈ 3.15 µM)	4 µg/mL (≈ 3.15 µM)	5.85 µg/mL	4.64 µg/mL (≈ 3.65 µM)	18.78 min	1.46
CC(C)(C)[C@@H]1NC(=O)[C@H](CCCN)NC(=O)[C@H](C(C)(C)C)NC(=O)[C@@H]2CCCN2C(=O)[C@@H](Cc2ccccc2)NC(=O)[C@H](C(C)(C)C)NC(=O)[C@H](CCCN)NC(=O)[C@H](C(C)(C)C)NC(=O)[C@@H]2CCCN2C(=O)[C@@H](CCCNC(=N)N)NC1=O (cyclo([Orn][Tle][dF]P[Tle][Orn][Tle][dR]P[Tle]))	6 µg/mL (≈ 5.09 µM)	6 µg/mL (≈ 5.09 µM)	84.1 µg/mL	12.6 µg/mL (≈ 10.7 µM)	16.92 min	14
CC(C)C[C@@H]1NC(=O)[C@H](CCCN)NC(=O)[C@H](C(C)C)NC(=O)[C@H](Cc2c[nH]c3ccccc23)NC(=O)[C@@H](Cc2c[nH]c3ccccc23)NC(=O)[C@H](CC(C)C)NC(=O)[C@H](CCCN)NC(=O)[C@H](C(C)C)NC(=O)[C@H](Cc2c[nH]c3ccccc23)NC(=O)[C@@H](Cc2c[nH]c3ccccc23)NC1=O	32 µg/mL (≈ 22.9 µM)	32 µg/mL (≈ 22.9 µM)	55.6 µg/mL	19.7 µg/mL (≈ 14.1 µM)	18.69 min	1.74
CC(C)C[C@@H]1NC(=O)[C@H](CCCN)NC(=O)[C@H](C(C)C)NC(=O)[C@@H]2CCCN2C(=O)[C@@H](Cc2ccccc2)NC(=O)[C@H](CC(C)C)NC(=O)[C@H](CCCN)NC(=O)[C@H](C(C)C)NC(=O)[C@@H]2CCCN2C(=O)[C@@H](Cc2ccccc2)NC1=O [GRAMICIDIN S] (HELM PEPTIDE1{L.[dF].P.V.[Orn].L.[dF].P.V.[Orn]}$PEPTIDE1,PEPTIDE1,1:R1-10:R2$$$V2.0)	4 µg/mL (≈ 3.5 µM)	4 µg/mL (≈ 3.5 µM)	12.3 µg/mL	6.45 µg/mL (≈ 5.65 µM)	18.57 min	3.09
CC(C)C[C@@H]1NC(=O)[C@H](CCCN)NC(=O)[C@H](C(C)(C)C)NC(=O)[C@@H]2CCCN2C(=O)[C@@H](CCCNC(=N)N)NC(=O)[C@H](CC(C)C)NC(=O)[C@H](CCCN)NC(=O)[C@H](C(C)C)NC(=O)[C@@H]2CCCN2C(=O)[C@@H](Cc2ccccc2)NC1=O	7 µg/mL (≈ 6.01 µM)	7 µg/mL (≈ 6.01 µM)	50.5 µg/mL	38.1 µg/mL (≈ 32.7 µM)	16.79 min	7.21
CC(C)C[C@@H]1NC(=O)[C@H](CCCN)NC(=O)[C@H](C(C)C)NC(=O)[C@@H]2CCCN2C(=O)[C@@H](CCCNC(=N)N)NC(=O)[C@H](CC(C)C)NC(=O)[C@H](CCCN)NC(=O)[C@H](C(C)C)NC(=O)[C@H](Cc2c[nH]c3ccccc23)NC(=O)[C@@H](Cc2ccccc2)NC1=O (HELM PEPTIDE1{L.[dF].W.V.[Orn].L.[dR].P.V.[Orn]}$PEPTIDE1,PEPTIDE1,1:R1-10:R2$$$V2.0)	5 µg/mL (≈ 4.03 µM)	5 µg/mL (≈ 4.03 µM)	31.9 µg/mL	11.3 µg/mL (≈ 9.13 µM)	16.5 min	6.38
CC(C)C[C@@H]1NC(=O)[C@H](CCCN)NC(=O)[C@H](C(C)(C)C)NC(=O)[C@@H]2CCCN2C(=O)[C@@H](Cc2ccccc2)NC(=O)[C@H](CC(C)C)NC(=O)[C@H](CCCN)NC(=O)[C@H](C(C)C)NC(=O)[C@@H]2CCCN2C(=O)[C@@H](CCCNC(=N)N)NC1=O	6 µg/mL (≈ 5.15 µM)	6 µg/mL (≈ 5.15 µM)	60.2 µg/mL	19.5 µg/mL (≈ 16.8 µM)	16.8 min	10
CC(C)C[C@@H]1NC(=O)[C@H](CCCN)NC(=O)[C@H](C(C)C)NC(=O)[C@H](Cc2c[nH]c3ccccc23)NC(=O)[C@@H](Cc2c[nH]c3ccccc23)NC(=O)[C@H](CC(C)C)NC(=O)[C@H](CCCN)NC(=O)[C@H](C(C)C)NC(=O)[C@H](Cc2c[nH]c3ccccc23)NC(=O)[C@@H](Cc2ccccc2)NC1=O (HELM PEPTIDE1{L.[dF].W.V.[Orn].L.[dW].W.V.[Orn]}$PEPTIDE1,PEPTIDE1,1:R1-10:R2$$$V2.0)	64 µg/mL (≈ 47.1 µM)	64 µg/mL (≈ 47.1 µM)	37.2 µg/mL	4.07 µg/mL (≈ 3 µM)	18.68 min	0.58
CC(C)C[C@@H]1NC(=O)[C@H](CCCN)NC(=O)[C@H](C(C)C)NC(=O)[C@H](Cc2c[nH]c3ccccc23)NC(=O)[C@@H](Cc2ccccc2)NC(=O)[C@H](CC(C)C)NC(=O)[C@H](CCCN)NC(=O)[C@H](C(C)C)NC(=O)[C@H](Cc2c[nH]c3ccccc23)NC(=O)[C@@H](Cc2ccccc2)NC1=O (HELM PEPTIDE1{L.[dF].W.V.[Orn].L.[dF].W.V.[Orn]}$PEPTIDE1,PEPTIDE1,1:R1-10:R2$$$V2.0)	7 µg/mL (≈ 5.3 µM)	7 µg/mL (≈ 5.3 µM)	12.2 µg/mL	5.03 µg/mL (≈ 3.81 µM)	18.58 min	1.75
